Measured values: ChEMBL document CHEMBL1147393, “Two new modified trichothecenes from Fusarium sporotrichioides” (J Nat Prod, 1993)

Assay: Cytotoxicity against syrian golden hamsters BHK21 cells
Type: cell-based, Mesocricetus auratus
Details: hamster, bhk-21

## CC1=C[C@H]2OC[C@]3(O)C[C@H](O)C[C@]3(C)[C@@]2(C)CC1
  LC100: 1000 ng/mL

## CC(=O)O[C@]12CO[C@@H]3C=C(C)CC[C@]3(C)[C@@]1(C)C[C@@H](O)C2
  LC100: 1000 ng/mL
